From patent US7608577B2, “Peptidyl ketones as inhibitors of DPIV” (OSI Pharmaceuticals, Inc., priority 2001, dated 2009)

Key:
[1] = biological target: porcine DP II; test: Inhibition of DPIV-like enzymes: dipeptidyl peptidase II; assay type: biochemical; conditions: inhibitor 1*10^−4 M-5*10^−8 M, pH7.6
Procedure: DP II (3.4.14.2) releases N-terminal dipeptides from oligopeptides if the N-terminus is not protonated (McDonald, J. K., Ellis, S. & Reilly, T. J., 1966, J. Biol. Chem., 241, 1494-1501). Pro and Ala in P1-position are preferred residues. The enzyme activity is described as DPIV-like activity, but DP II has an acidic pH-optimum. The enzyme used was purified from porcine kidney.
100 μl inhibitor in a concentration range of 1*10^−4 M-5*10^−8 M was admixed with 100 μl buffer solution (40 mM HEPES, pH7.6, 0.015% Brij, 1 mM DTT), 50 μl lysylalanylaminomethylcoumarine solution (5 mM) and 20 μl porcine DP II (250fold diluted in buffer solution). Fluorescence measurement was performed at 30° C. and λexcitation=380 nm, λemission=465 nm for 25 min using a plate reader (HTS7000plus, Applied Biosystems, Weiterstadt, Germany). The Ki-values were calculated using Graphit 4.0.15 (Erithacus Software, Ltd., UK).

[2] = biological target: attractin (Homo sapiens, UniProt O75882); test: Inhibition of DPIV-like enzymes: attractin; assay type: biochemical; conditions: inhibitor 1 mM to 30 nM, Gly-Pro-pNA 0.4 mM, APN
Procedure: 100 μl inhibitor stock solution was mixed with 100 μl buffer (HEPES pH7.6) and 20 μl diluted attractin and preincubated at 30° C. Reaction was started by addition of a mixture of 50 μl substrate (Gly-Pro-pNA, final concentration 0.4 mM) and 2 μl APN stock solution. Formation of the product pNA was measured at 405 nm and 30° C. over 10 min using the HTS 7000Plus plate reader (Perkin Elmer) and slopes were calculated. The final inhibitor concentrations ranged between 1 mM and 30 nM. For calculation of IC50 values, GraFit 4.0.13 (Erithacus Software) was used.

Chain of attractin (O75882 84-1429, species assumed): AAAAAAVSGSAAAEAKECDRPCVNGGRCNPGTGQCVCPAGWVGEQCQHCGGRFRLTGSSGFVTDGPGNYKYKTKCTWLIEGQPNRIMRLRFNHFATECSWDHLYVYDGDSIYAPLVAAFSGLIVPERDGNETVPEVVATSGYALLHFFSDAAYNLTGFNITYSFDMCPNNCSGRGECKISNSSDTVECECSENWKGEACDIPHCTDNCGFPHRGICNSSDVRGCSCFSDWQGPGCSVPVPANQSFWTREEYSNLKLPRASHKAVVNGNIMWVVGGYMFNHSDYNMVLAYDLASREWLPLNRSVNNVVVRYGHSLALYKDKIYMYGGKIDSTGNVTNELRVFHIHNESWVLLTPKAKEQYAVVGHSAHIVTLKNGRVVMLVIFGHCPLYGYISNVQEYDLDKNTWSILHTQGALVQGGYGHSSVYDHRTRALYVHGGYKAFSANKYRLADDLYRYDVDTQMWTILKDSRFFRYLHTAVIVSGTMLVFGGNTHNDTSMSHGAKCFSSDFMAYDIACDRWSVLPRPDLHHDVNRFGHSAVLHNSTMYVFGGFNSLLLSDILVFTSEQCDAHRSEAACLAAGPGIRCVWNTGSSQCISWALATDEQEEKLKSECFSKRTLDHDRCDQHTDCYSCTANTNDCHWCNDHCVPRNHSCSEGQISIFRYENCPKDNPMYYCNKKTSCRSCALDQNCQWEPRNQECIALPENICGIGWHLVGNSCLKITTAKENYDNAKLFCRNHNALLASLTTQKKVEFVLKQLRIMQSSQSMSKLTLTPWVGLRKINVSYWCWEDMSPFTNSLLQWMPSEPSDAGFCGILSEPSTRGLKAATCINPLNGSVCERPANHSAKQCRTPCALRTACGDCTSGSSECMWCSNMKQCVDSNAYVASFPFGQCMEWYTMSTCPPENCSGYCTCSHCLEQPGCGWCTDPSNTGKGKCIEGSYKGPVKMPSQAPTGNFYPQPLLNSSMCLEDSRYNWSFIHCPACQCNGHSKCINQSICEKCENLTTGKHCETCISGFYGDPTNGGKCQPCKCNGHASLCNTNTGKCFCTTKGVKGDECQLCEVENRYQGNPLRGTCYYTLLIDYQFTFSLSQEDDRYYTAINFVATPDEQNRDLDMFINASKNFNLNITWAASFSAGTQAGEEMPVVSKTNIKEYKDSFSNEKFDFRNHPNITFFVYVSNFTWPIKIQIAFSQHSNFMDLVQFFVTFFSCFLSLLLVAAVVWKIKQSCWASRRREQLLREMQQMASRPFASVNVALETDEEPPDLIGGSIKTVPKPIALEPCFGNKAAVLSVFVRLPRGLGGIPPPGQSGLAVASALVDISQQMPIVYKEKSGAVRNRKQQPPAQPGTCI

Row | Compound | inhibition of DP II [1] | inhibition of attractin [2]
1 | Br.CC(C)[C@H](NC(=O)[C@H](C)N)C(=O)N1CCC[C@H]1C(=O)COC(=O)c1ccccc1 [H-Ala-Val-Pro-CO—CH2O—CO—Ph*HBr, 2-[(Benzoyloxy-methyl)carbonyl]-1-N-[{(L)-Alanyl}-(L)-Valinyl]-(2S)-pyrrolidine hydrobromide] | No inhibition | –
2 | Br.CC(=O)[C@@H]1CCCN1C(=O)[C@@H](NC(=O)[C@H](C)N)C(C)C [H-Ala-Val-Pro-Me*HBr, 2-Methylcarbonyl-1-N-[(L)-Alanyl-(L)-Valinyl]-(2S)-pyrrolidine hydrobromide] | – | No inhibition
